Test results reported in article PMC12282092, “Discovery of a non-nucleoside inhibitor that binds to a novel site in the palm domain of the respiratory syncytial virus RNA-dependent RNA polymerase” (Journal of Virology, 2025).

Legend:
[1] = Metabolic stability in liver microsomes; conditions: in vitro intrinsic clearance in human liver microsomes, n = 1
HeLa cells = experiment: HeLa cytotoxicity assay (ATPlite); conditions: HeLa cells
Experimental: (§1) Compound serial dilutions (9 point, fourfold) were prepared in DMSO, and 200 nL was transferred to black, 384-well, clear-bottom microtiter plates (Corning, Amsterdam, The Netherlands) via acoustic drop ejection ([36], [50]). […] Then, 20 µL of a HeLa cell suspension (3,000 cells/well) was added with a Multidrop Combi, and cells were incubated at 37°C in a 5% CO2 atmosphere. After 72 h, GFP expression was quantified using an EnVision Multimode Plate Reader (Perkin Elmer, Zaventem, Belgium), and data were normalized to untreated and media-only (no virus) controls. Cytotoxicity was determined in parallel using the ATPlite kit (Perkin Elmer, Zaventem, Belgium). Luminescence was measured in white, 384-well microtiter plates (Corning) on a ViewLux uHTS Microplate Imager apparatus (PerkinElmer, Zaventem, Belgium), and cellular ATP content was quantified by normalizing to untreated and media-only (no cell) controls. […] Figures were prepared with GraphPad Prism.

[2] = HeLa cytotoxicity assay (ATPlite); conditions: human; for CC50 at 72 h: HeLa cells
Experimental: as §1

RSV L+P = target: T1, RSV L+P (Human respiratory syncytial virus A, UniProt P28887); experiment: Pyrophosphate luminescence detection assay, full-length RSV L+P; assay type: biochemical; conditions: for IC50: read-out: Biochemical IC50; for Emax: read-out: Biochemical Emax
T1 construct: Biochemical activity of 1 and 22 against full-length RSV L+P; Twin-Strep-tag (N); made in house; host or cells: Sf9 insect cells (baculovirus, pFastBac Dual)
T1 sequence (P03421 whole entry): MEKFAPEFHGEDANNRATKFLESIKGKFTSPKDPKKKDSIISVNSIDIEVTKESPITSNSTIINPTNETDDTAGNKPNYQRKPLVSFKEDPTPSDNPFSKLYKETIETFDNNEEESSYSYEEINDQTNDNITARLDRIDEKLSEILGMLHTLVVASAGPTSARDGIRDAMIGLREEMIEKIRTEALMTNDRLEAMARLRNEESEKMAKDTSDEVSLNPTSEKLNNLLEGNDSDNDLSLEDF
T1 sequence (P28887 whole entry): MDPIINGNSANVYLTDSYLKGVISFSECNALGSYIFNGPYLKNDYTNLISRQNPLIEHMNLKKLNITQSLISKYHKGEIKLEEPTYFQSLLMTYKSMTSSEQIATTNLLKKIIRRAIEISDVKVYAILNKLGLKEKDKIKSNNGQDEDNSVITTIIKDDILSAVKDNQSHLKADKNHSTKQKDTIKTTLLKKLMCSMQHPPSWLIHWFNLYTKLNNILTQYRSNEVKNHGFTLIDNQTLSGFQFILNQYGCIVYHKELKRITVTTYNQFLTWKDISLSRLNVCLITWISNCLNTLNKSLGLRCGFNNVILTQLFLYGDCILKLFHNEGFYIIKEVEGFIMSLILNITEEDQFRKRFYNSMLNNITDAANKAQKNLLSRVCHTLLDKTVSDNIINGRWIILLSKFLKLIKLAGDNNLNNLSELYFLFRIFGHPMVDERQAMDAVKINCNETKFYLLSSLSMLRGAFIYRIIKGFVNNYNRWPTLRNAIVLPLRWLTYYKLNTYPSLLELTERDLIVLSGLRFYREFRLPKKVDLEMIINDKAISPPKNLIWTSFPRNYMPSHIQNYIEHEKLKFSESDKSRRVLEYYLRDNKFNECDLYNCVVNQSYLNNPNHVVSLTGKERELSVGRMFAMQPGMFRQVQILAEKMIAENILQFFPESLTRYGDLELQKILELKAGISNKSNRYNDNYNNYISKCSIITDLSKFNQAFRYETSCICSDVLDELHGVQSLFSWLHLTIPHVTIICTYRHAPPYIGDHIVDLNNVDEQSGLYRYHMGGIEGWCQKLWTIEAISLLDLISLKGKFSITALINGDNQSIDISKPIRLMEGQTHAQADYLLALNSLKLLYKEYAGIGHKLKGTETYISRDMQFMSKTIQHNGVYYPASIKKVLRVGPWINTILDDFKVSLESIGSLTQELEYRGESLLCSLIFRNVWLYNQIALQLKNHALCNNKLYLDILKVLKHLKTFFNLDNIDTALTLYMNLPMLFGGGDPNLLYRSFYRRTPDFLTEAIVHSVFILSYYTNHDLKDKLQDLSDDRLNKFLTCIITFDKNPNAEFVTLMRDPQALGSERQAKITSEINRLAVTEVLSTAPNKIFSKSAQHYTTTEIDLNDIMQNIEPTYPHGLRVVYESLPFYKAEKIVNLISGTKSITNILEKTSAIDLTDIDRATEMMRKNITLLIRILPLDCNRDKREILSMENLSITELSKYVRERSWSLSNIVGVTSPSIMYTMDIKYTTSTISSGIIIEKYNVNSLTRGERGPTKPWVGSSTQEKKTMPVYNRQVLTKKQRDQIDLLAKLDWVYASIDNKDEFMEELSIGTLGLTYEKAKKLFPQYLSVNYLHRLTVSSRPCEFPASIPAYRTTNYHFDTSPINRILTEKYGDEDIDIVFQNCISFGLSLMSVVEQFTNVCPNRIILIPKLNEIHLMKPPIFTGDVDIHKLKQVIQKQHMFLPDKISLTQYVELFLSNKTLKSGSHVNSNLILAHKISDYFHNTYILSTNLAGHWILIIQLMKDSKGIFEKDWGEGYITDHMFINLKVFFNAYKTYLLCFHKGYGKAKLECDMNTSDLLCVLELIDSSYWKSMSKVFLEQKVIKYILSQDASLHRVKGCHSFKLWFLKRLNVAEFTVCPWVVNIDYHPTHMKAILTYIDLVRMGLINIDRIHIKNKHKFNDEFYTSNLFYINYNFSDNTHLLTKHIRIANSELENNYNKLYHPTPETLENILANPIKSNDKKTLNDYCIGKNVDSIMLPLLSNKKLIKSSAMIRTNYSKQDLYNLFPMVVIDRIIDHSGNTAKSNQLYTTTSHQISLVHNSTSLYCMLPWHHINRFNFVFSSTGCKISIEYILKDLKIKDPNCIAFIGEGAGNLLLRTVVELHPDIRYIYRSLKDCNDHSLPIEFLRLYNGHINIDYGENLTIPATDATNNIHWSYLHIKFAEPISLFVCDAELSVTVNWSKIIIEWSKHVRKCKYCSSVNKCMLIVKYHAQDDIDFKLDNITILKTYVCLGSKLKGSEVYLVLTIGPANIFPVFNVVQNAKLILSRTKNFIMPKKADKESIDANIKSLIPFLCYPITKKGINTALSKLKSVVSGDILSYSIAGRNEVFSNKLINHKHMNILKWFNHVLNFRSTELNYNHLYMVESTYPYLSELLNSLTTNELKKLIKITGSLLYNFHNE
Experimental: Working solutions (3×) of RSV L+P (60 nM), substrate (30 µM each of GTP, CTP, UTP, 300 µM ATPαS [Jena Bioscience], 15 µM RNA template TrC-25), detection reagents (6 nM Luciferase, 900 µM luciferin, 3 U/µL ATP Sulfurylase [BioVision], 15 µM adenosine phosphosulfate [APS], 3 mM coenzyme A), were prepared in complete assay buffer. Compounds were dissolved in dimethyl sulfoxide (DMSO) and dispensed to white, 1536-well cyclic olefin copolymer (COC) plates (Corning, 9145BC) using an Echo Acoustic Liquid Handler (Beckman Coulter, San Jose, CA). Substrate (1 µL) and detection reagents (1 µL) were dispensed using a Multidrop Combi Dispenser (ThermoFisher, Waltham, MA), followed by enzyme (1 µL) to initiate the reaction. Final screening concentrations were 20 nM RSV L+P, 10 µM GTP/CTP/UTP, 100 µM ATPαS, 5 µM TrC-25, 2 nM Luciferase (Promega), 300 µM luciferin (Promega), 1 U/µL ATP sulfurylase, 5 µM APS, and 1 mM CoA. […] Luminescence was detected using the PHERAStar FSX (BMG Labtech, Ortenberg, Germany).

[3] = system: rgRSV224 virus (RSV A2) in HeLa cells; experiment: HeLa cell rgRSV224 eGFP reporter viral proliferation assay; assay type: cell-based; conditions: human respiratory syncytial virus, RSV eGFP phenotypic assay in HeLa cells; for EC50: HeLa, 72 h, MOI 1, 72 h, n ≥ 2, read-out: Cellular EC50; for Emax: read-out: Cellular Emax
Experimental: as §1

[4] = target: human mitochondrial RNA polymerase (POLRMT) (Homo sapiens, UniProt O00411); experiment: POLRMT assay
Sequence of human mitochondrial RNA polymerase (POLRMT) (O00411 103-1230): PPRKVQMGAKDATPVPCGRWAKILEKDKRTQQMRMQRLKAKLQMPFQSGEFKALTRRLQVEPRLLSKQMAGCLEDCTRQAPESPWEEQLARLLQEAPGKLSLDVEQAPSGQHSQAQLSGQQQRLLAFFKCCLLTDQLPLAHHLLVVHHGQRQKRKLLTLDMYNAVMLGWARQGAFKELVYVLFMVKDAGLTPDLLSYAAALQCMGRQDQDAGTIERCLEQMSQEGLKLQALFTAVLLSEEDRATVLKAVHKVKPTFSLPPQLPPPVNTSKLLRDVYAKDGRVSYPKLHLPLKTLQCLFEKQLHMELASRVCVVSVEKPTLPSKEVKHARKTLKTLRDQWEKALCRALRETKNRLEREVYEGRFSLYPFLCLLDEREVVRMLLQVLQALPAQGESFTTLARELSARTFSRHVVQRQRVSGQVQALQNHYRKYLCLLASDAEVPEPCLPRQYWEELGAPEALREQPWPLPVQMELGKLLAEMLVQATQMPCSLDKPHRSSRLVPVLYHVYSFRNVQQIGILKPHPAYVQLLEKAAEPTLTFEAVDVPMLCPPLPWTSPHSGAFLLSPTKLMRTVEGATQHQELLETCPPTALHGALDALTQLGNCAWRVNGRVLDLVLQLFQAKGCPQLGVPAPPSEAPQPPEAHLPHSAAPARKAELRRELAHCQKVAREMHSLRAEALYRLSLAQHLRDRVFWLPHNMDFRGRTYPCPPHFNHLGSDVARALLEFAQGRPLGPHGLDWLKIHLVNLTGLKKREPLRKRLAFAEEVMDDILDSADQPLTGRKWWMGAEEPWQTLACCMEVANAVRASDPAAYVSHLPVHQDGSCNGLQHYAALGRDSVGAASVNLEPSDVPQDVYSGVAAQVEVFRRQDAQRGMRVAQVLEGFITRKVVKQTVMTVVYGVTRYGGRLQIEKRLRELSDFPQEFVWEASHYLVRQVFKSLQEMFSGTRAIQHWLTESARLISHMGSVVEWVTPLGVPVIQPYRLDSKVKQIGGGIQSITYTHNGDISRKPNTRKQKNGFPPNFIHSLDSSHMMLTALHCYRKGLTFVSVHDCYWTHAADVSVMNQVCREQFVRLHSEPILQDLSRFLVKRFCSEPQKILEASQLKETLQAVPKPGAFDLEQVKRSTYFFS

[5] = target: coupled enzyme system (ATP sulfurylase, luciferase); experiment: Pyrophosphate detection counterscreen; assay type: biochemical; conditions: read-out: PPi counterscreen IC50
Experimental: To determine if compounds were interfering with the sulfurylase or luciferase in the pyrophosphate luminescence detection assay, a counterscreen was developed to monitor activity of the coupling system. Working solutions (3×) of substrate and detection reagents were prepared as before and added to 1536-well white, COC plates containing compound titrations. Then, 1 µL of a 3× solution of 4.5 µM sodium pyrophosphate (Sigma, P8010) was dispensed with the Multidrop Combi to initiate the reaction. […] Luminescence was detected using the PHERAStar FSX. […] Figures were prepared with GraphPad Prism.

[6] = target: Full-length RSV P (1-241) protein (human RSV); experiment: cryo-EM structure; full-length RSV L+P complex with compound 22; 0.8 mg/mL on grids; global resolution 2.72 Å
[7] = pyrophosphate luminescence detection assay, full-length RSV L+P, n ≥ 2
[8] = pyrophosphate luminescence detection assay

Compound | HLM CLint [1] | Cytotoxicity Emax (HeLa cells) [%] | CC50 at 72 h [2] [µM] | IC50 (RSV L+P; [7]) [µM] | Emax (RSV L+P; [8]) [%] | EC50 [3] [µM] | Emax [3] [%] | CC50 [2] [µM] | Biochemical IC50 (RSV L+P; [7]) | loss in potency on replacing the bromo substituent with a proton (RSV L+P; compared to 1) [fold] | IC50 [4] [µM] | POLRMT IC50 ([4]; 8 nM POLRMT) | IC50 [5] [µM] | stoichiometry N [6]
Cc1cc(N2CCC3(CC2)C(=O)N(C)c2ccc(F)cc23)cc(F)c1C#N [Compound 32, 2-fluoro-4-(5-fluoro-1-methyl-2-oxospiro[indoline-3,4'-piperidin]-1'-yl)-6-methylbenzonitrile] | 64.8 µL/min/mg microsomal protein | 50.9 | > 5.78 | 1.9 | 91.2 | 13.8 | 92.6 |  |  |  |  |  |  | 
N#Cc1ncc(N2CCC3(CC2)C(=O)Nc2ccc(Cl)cc23)cc1Cl [Compound 16, 3-chloro-5-(5-chloro-2-oxospiro[indoline-3,4'-piperidin]-1'-yl)picolinonitrile] | <7.7 µL/min/mg microsomal protein | 45.3 | > 13 | 1.03 | 108 | 8.07 | 94.2 |  |  |  |  |  |  | 
N#Cc1ncc(N2CCC3(CC2)C(=O)N(c2cccnc2)c2ccc(F)cc23)cc1Cl [Compound 21, 3-chloro-5-(5-fluoro-2-oxo-1-(pyridin-3-yl)spiro[indoline-3,4'-piperidin]-1'-yl)picolinonitrile] |  | 44.8 | > 2.71 | 0.8 | 107 | 3.38 | 95.8 |  |  |  |  |  |  | 
CN1C(=O)C2(CCN(c3ccc(C#N)c(Cl)n3)CC2)c2cc(F)ccc21 [Compound 29, 2-chloro-6-(5-fluoro-1-methyl-2-oxospiro[indoline-3,4'-piperidin]-1'-yl)nicotinonitrile] | 31.9 µL/min/mg microsomal protein | 66.9 | > 8.43 | 1.56 | 95.5 | 7.89 | 94.3 |  |  |  |  |  |  | 
CN1C(=O)C2(CCN(c3ccc(C#N)c(Cl)c3)CC2)c2cc(F)ccc21 [Compound 30] | 39.1 µL/min/mg microsomal protein | 58.0 |  | 1.25 | 100 | 4.35 | 95.8 | > 6.65 |  |  |  |  |  | 
COc1cc(N2CCC3(CC2)C(=O)N(C)c2ccc(F)cc23)cnc1C#N [Compound 31, 5-(5-fluoro-1-methyl-2-oxospiro[indoline-3,4'-piperidin]-1'-yl)-3-methoxypicolinonitrile] | 20.5 µL/min/mg microsomal protein | 37.6 | > 22.7 | 2.98 | 115 | 8.78 | 98.6 |  |  |  |  |  |  | 
Cc1ccc2c(c1)C1(CCN(c3cnc(C#N)c(Cl)c3)CC1)C(=O)N2 [Compound 17, 3-chloro-5-(5-methyl-2-oxospiro[indoline-3,4'-piperidin]-1'-yl)picolinonitrile] | 123 µL/min/mg microsomal protein | 8.6 | > 50 | 1.75 | 111 | 10.9 | 55.1 |  |  |  |  |  |  | 
CN1C(=O)C2(CCN(c3cnc(N4CCOCC4)c(Cl)c3)CC2)c2cc(F)ccc21 [Compound 34, 1'-(5-chloro-6-morpholinopyridin-3-yl)-5-fluoro-1-methylspiro[indoline-3,4'-piperidin]-2-one] | 126 µL/min/mg microsomal protein | 41.6 | > 50 | > 30.2 | 69.5 | 30.3 | 49.6 |  | inactive |  |  |  |  | 
N#Cc1ncc(N2CCC3(CC2)C(=O)N(CC2CC2)c2ccc(F)cc23)cc1Cl [Compound 24, 3-chloro-5-(1-(cyclopropylmethyl)-5-fluoro-2-oxospiro[indoline-3,4'-piperidin]-1'-yl)picolinonitrile] | 46.3 µL/min/mg microsomal protein | 51.8 | > 7.77 |  | 89.4 | 8.61 | 78.3 |  |  |  |  |  |  | 
COc1ccc2c(c1)C1(CCN(c3cnc(C#N)c(Cl)c3)CC1)C(=O)N2 [Compound 18, 3-chloro-5-(5-methoxy-2-oxospiro[indoline-3,4'-piperidin]-1'-yl)picolinonitrile] |  | 82.4 | 24.4 | 3.1 | 100 | 15.9 | 96.8 |  |  |  |  |  |  | 
N#Cc1ncc(N2CCC3(CC2)C(=O)Nc2ccccc23)cc1Cl [Compound 20, 3-chloro-5-(2-oxospiro[indoline-3,4'-piperidin]-1'-yl)picolinonitrile] | 19.7 µL/min/mg microsomal protein | 42.9 | > 3.8 | 6.63 | 84.7 | 8.34 | 81.4 |  |  | 10 |  |  |  | 
N#Cc1ncc(N2CCC3(CC2)C(=O)Nc2ccc(Br)cc23)cc1Cl [Compound 1, 5-(5-bromo-2-oxospiro[indoline-3,4'-piperidin]-1'-yl)-3-chloropicolinonitrile] | <7.7 µL/min/mg microsomal protein | 63.1 | > 3.8 |  | 110 | 6.68 | 94.6 |  |  |  | > 100 | no activity | > 100 | 
N#Cc1ncc(N2CCC3(CC2)C(=O)N(CCF)c2ccc(F)cc23)cc1Cl [Compound 25, 3-chloro-5-(5-fluoro-1-(2-fluoroethyl)-2-oxospiro[indoline-3,4'-piperidin]-1'-yl)picolinonitrile] | 14.1 µL/min/mg microsomal protein | 66.5 | > 23.4 | 2.86 | 90.7 | 8.86 | 80.3 |  |  |  |  |  |  | 
N#Cc1ncc(N2CCC3(CC2)C(=O)Nc2ccc(F)cc23)cc1Cl [Compound 19, 3-chloro-5-(5-fluoro-2-oxospiro[indoline-3,4'-piperidin]-1'-yl)picolinonitrile] | 19 µL/min/mg microsomal protein | 52.2 | > 50 | 2.7 | 106 | 6.54 | 99.9 |  |  |  |  |  |  | 
Full-length RSV P (1-241) protein (natural protein) |  |  |  |  |  |  |  |  |  |  |  |  |  | 4
CN1C(=O)C2(CCN(c3cnc(C#N)c(Cl)c3)CC2)c2cc(F)ccc21 [Compound 23, 3-chloro-5-(5-fluoro-1-methyl-2-oxospiro[indoline-3,4'-piperidin]-1'-yl)picolinonitrile] | 19 µL/min/mg microsomal protein | 55.7 | > 3.74 |  | 103 | 3.67 | 93.3 |  |  |  |  |  |  | 
